Columns and labels:
[1] = system: rats' motor performance and coordination; assay: Rotarod test; conditions: buspirone 0.1-30 mg/kg i.p., pentobarbital 15 mg/kg i.p., 5 or 30 min before test; compared to vehicle
locomotor activity = assay: Open field test; conditions: buspirone 0.1-30 mg/kg i.p., pentobarbital 15 mg/kg i.p.; 60 minutes observation period; compared to vehicle
Parkinson's disease = conditions: cited from earlier work
[2] = system: unilaterally 6-OHDA-lesioned rats; assay: L-DOPA induced AIMs test in the 6-OHDA rat model; type: in vivo; conditions: previously shown by the applicant
LID = conditions: cited from earlier work

| SMILES | Rotarod performance (time spent on the accelerating rod) [1] | Open field performance (locomotor activity) (locomotor activity) | disability ratings (Parkinson's disease; 100 mg/day) | dyskinesia (Parkinson's disease; 100 mg/day) | effects on Parkinson's disease or dyskinesia (Parkinson's disease; 10-60 mg/day) | L-DOPA-induced involuntary movements [2] | effects compared to placebo (LID; phase 2b and 3 studies) | LID (LID; pre-clinical and clinical studies) |
| --- | --- | --- | --- | --- | --- | --- | --- | --- |
| CCCC(C)C1(CC)C(=O)NC(=O)NC1=O (stereo not shown) [Pentobarbital] | significantly reduces time spent on the rotarod | significantly reduced motor performance | – | – | – | – | – | – |
| O=C1CC2(CCCC2)CC(=O)N1CCCCN1CCN(c2ncccn2)CC1 [buspirone, 8-[4-(4-pyrimidin-2-ylpiperazin-1-yl)butyl]-8-azaspiro[4.5]decane-7,9-dione] | affect performance in the rotarod model in a dose dependent manner | dose dependently is able to affect performance in the open field test | significant worsening of disability ratings | reduced dyskinesia | did not have any effects on Parkinson's disease or dyskinesia | dose dependently reduce L-DOPA-induced involuntary movements | – | – |
| Fc1ccc(-c2cncc(CNC[C@H]3CCc4ccccc4O3)c2)cc1 [sarizotan, 1-[(2R)-3,4-dihydro-2H-chromen-2-yl]-N-([5-(4-fluorophenyl)pyridin-3-yl]methyl)methanamine] | – | – | – | – | – | – | no significant effects | reduced LID |
